Earlier results, collected in patent publication US20220401579A1, “INCLUSION COMPLEXES OF PHARMACEUTICALS AND CYCLIC OLIGOMERS” (DISPERSOL TECHNOLOGIES, LLC, priority 2019, published 2022).
Like-named read-outs stand apart in the source and are kept apart here.

What was measured:
[1] = for solubility in water / aqueous media (descriptive): water or aqueous media
[2] = granulate released in the proximal small intestine

CC(O)COC[C@H]1O[C@@H]2O[C@H]3[C@H](O)[C@@H](O)[C@@H](O[C@H]4[C@H](O)[C@@H](O)[C@@H](O[C@H]5[C@H](O)[C@@H](O)[C@@H](O[C@H]6[C@H](O)[C@@H](O)[C@@H](O[C@H]7[C@H](O)[C@@H](O)[C@@H](O[C@H]8[C@H](O)[C@@H](O)[C@@H](O[C@H]1[C@H](O)[C@H]2O)O[C@@H]8COCC(C)O)O[C@@H]7COCC(C)O)O[C@@H]6COCC(C)O)O[C@@H]5COCC(C)O)O[C@@H]4COCC(C)O)O[C@@H]3COCC(C)O (stereo partly drawn) [HPBCD, hydroxy propyl β cyclodextrin]
water solubility ([1]; water): > 600 mg/mL

CCC(C)n1ncn(-c2ccc(N3CCN(c4ccc(OCC5COC(Cn6cncn6)(c6ccc(Cl)cc6Cl)O5)cc4)CC3)cc2)c1=O (stereo not shown) [Itraconazole, 2-butan-2-yl-4-[4-[4-[4-[[2-(2,4-dichlorophenyl)-2-(1,2,4-triazol-1-ylmethyl)-1,3-dioxolan-4-yl]methoxy]phenyl]-1-piperazinyl]phenyl]-1,2,4-triazol-3-one]
solubility in alcohols (descriptive) ([1]; alcohols): very slightly soluble | solubility in dichloromethane (descriptive) ([1]; dichloromethane): freely soluble | log (n-octanol/water) partition coefficient ([1]; pH 8.1): 5.66 | solubility in water / aqueous media (descriptive) [1]: insoluble

COC(=O)c1ccc2c(c1)NC(=O)/C2=C(\Nc1ccc(N(C)C(=O)CN2CCN(C)CC2)cc1)c1ccccc1 [Nintedanib esylate, 1H-Indole-6-carboxylic acid, 2,3 dihydro-3-[[[4-[methyl[(4-methyl-1-piperazinyl)acetyl]amino]phenyl]amino]phenylmethylene]-2-oxo-,methyl ester, (3Z)-, ethanesulfonate (1:1)]
intrinsic pH of saturated solution in water ([1]; saturated solution in water): 5.7 | concentration of a saturated solution in water ([1]; water): 2800 µg/mL | solubility in water / aqueous media (descriptive) [1]: soluble

COC(=O)c1ccc2c(c1)NC(=O)/C2=C(\Nc1ccc(N(C)C(=O)CN2CCN(C)CC2)cc1)c1ccccc1 [Nintedanib, 1H-Indole-6-carboxylic acid, 2,3 dihydro-3-[[[4-[methyl[(4-methyl-1-piperazinyl)acetyl]amino]phenyl]amino]phenylmethylene]-2-oxo-,methyl ester]
median Tmax (fasted): 2.00 h | median Tmax (fed): 3.98 h | increase in exposure after food intake compared to fasted conditions (fed versus fasted): approximately 20%

O=C(NC[C@H]1CN(c2ccc(N3CCOCC3=O)cc2)C(=O)O1)c1ccc(Cl)s1 [Rivaroxaban, 5-Chloro-N-({(5S)-2-oxo-3-[4-(3-oxo-4-morpholinyl)phenyl]-1,3-oxazolidin-5-yl}methyl)-2-thiophenecarboxamide]
solubility in organic solvents (descriptive) ([1]; organic solvents (e.g., acetone, polyethylene glycol 400)): only slightly soluble | solubility in water / aqueous media (descriptive) [1]: practically insoluble | absolute bioavailability (20 mg dose, fasted state): approximately 66% | decrease in AUC compared to tablet [2]: 29% | decrease in Cmax compared to tablet [2]: 56%

CNC(=O)c1cc(Oc2ccc(NC(=O)Nc3ccc(Cl)c(C(F)(F)F)c3)cc2)ccn1 [Sorafenib, 4-[4-({[4-chloro-3-(trifluoromethyl)phenyl]carbamoyl}amino)phenoxy]-N-methylpyridine-2-carboxamide]
solubility in PEG 400 (descriptive) ([1]; PEG 400): soluble | solubility in ethanol (descriptive) ([1]; ethanol): slightly soluble | solubility in water / aqueous media (descriptive) [1]: practically insoluble
